Active and inactive are the calls of the source.
Key:
[1] = biological target: T1, Alkaline phosphatase, tissue-nonspecific isozyme (Homo sapiens, UniProt P05186); assay: human TNAP enzyme inhibitors, SAR follow-up, biochemical, luminescent, dose response (AID 1056)
T1 sequence (P05186 whole entry): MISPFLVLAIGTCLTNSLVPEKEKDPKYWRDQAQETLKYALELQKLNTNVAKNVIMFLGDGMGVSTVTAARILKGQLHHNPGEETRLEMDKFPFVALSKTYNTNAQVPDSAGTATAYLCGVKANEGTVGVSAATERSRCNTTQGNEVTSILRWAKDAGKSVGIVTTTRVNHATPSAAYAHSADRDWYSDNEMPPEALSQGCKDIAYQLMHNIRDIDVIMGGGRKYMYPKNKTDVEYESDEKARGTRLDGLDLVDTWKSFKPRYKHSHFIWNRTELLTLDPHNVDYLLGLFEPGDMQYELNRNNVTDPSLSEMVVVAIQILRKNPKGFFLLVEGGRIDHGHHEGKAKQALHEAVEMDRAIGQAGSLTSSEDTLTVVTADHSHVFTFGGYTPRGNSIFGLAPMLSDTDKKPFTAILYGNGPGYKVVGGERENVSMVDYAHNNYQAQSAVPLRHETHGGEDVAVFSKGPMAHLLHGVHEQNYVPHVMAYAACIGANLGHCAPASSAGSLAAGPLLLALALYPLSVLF

[2] = biological target: Glyceraldehyde-3-phosphate dehydrogenase (Homo sapiens, UniProt P04406)
Sequence of Glyceraldehyde-3-phosphate dehydrogenase (P04406 whole entry): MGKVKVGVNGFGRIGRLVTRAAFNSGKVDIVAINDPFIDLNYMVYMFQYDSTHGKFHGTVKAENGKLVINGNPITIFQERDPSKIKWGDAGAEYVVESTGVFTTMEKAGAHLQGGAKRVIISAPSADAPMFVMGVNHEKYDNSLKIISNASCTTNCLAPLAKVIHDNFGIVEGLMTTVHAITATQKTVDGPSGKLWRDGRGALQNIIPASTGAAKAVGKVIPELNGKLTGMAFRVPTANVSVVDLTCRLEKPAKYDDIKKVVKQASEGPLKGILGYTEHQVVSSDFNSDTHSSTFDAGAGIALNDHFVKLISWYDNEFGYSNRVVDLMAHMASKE

[3] = biological target: T2, Hexokinase-1 (Homo sapiens, UniProt P19367); assay: hexokinase 1 activators, dose response, selectivity assay for HKDC1 activator project, biochemical (AID 504762); format: functional
T2 sequence (P19367 whole entry): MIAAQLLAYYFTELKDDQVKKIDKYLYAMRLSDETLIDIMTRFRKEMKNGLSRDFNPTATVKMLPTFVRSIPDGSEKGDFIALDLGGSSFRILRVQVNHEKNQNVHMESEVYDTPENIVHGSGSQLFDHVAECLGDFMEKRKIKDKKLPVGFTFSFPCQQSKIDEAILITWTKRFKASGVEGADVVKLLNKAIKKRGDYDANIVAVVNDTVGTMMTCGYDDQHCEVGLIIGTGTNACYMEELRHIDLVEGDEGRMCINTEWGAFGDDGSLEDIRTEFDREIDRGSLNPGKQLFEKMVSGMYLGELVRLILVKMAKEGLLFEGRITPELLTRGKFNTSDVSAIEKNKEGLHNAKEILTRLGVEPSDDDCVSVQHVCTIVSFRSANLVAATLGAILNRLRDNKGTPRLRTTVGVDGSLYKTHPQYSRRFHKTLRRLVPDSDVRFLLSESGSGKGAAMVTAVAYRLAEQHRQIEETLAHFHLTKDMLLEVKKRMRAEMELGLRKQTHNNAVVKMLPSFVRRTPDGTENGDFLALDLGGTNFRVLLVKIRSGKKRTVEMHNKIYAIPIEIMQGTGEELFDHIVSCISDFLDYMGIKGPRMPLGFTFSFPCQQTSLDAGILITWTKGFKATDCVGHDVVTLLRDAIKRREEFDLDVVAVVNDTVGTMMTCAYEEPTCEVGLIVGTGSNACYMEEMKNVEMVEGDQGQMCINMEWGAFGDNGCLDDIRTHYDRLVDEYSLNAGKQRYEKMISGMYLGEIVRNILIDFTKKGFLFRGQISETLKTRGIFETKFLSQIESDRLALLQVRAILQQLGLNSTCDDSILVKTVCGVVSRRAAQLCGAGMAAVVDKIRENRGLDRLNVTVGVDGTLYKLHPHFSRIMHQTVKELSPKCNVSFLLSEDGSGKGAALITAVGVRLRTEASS

[4] = biological target: T3, Hexokinase HKDC1 (Homo sapiens, UniProt Q2TB90); assay: HKDC1 hexokinase activators, dose response, biochemical, W721R variant (AID 504730); format: functional
T3 sequence (Q2TB90 whole entry): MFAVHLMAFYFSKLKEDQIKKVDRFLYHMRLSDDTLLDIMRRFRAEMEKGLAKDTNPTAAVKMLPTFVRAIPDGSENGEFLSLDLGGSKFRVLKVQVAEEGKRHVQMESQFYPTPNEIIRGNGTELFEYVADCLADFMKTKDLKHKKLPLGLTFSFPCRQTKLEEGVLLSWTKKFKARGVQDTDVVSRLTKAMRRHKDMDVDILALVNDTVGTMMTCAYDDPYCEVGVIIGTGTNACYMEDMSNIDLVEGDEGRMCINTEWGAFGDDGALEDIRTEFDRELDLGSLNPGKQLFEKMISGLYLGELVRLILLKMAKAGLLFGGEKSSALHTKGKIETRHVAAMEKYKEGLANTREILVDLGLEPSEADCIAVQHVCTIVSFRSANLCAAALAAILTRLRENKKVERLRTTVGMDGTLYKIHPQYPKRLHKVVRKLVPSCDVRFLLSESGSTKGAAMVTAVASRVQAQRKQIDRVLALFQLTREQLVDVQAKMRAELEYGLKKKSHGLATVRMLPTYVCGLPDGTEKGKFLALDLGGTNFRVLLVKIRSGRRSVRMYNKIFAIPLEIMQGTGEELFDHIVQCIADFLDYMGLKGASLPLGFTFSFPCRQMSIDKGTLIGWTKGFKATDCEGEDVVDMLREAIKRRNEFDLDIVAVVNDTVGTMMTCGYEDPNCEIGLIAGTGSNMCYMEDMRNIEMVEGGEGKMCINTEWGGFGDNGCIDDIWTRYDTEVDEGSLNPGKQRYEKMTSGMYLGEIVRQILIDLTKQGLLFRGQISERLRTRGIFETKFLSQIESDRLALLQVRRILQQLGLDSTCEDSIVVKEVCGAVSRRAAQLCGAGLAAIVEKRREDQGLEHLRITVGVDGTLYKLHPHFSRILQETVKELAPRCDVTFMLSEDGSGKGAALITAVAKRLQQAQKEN

[5] = biological target: Ion channel NompC (Danio rerio, UniProt Q7T1G6); assay: Dose response cell-based high-throughput screening assay for agonists of the transient receptor potential channel N1 (TRPN1). [Related pubchem assays (depositor defined):AID1424, AID1448]; format: functional
Sequence of Ion channel NompC (Q7T1G6 whole entry): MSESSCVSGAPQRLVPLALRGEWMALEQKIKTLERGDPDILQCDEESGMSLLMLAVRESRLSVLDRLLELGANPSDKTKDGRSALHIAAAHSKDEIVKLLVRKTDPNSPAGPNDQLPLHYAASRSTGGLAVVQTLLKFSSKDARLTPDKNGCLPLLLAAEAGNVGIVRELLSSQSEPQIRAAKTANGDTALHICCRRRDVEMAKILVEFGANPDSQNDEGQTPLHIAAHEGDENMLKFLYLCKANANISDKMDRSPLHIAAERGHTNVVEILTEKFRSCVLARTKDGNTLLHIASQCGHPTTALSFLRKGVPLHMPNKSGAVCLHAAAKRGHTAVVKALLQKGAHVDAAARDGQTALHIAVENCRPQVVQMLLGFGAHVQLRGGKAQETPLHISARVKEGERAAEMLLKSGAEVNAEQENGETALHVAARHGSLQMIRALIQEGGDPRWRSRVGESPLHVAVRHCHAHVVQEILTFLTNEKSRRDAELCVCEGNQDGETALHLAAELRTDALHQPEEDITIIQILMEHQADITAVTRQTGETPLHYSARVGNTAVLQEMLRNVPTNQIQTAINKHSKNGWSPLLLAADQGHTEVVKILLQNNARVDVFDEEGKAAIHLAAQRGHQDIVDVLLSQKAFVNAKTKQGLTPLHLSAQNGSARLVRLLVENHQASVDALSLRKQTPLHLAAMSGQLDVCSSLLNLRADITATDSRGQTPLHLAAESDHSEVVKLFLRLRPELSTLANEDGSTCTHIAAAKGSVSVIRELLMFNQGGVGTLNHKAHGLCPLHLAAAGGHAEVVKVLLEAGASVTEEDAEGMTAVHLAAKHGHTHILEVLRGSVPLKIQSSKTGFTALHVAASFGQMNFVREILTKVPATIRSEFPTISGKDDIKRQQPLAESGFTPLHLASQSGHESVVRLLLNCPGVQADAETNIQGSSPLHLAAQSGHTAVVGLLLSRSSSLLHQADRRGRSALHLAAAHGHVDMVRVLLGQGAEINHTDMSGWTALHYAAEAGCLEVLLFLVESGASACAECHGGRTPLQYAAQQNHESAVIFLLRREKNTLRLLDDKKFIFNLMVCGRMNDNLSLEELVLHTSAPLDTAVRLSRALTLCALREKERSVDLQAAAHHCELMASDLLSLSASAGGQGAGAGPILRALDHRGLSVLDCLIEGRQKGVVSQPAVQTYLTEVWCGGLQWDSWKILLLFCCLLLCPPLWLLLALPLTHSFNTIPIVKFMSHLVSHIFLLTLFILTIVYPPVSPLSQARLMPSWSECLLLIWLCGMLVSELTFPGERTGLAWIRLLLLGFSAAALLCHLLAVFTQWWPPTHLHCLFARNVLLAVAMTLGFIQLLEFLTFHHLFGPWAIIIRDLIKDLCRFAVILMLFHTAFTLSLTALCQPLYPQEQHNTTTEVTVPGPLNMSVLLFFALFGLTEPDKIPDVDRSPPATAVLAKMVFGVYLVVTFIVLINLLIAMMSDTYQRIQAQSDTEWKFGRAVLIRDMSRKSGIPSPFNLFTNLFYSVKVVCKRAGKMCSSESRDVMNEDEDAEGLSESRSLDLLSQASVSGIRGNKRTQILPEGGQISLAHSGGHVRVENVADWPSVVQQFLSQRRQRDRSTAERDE

[6] = biological target: T4, Mucolipin-3 (Homo sapiens, UniProt Q8TDD5); assay: Fluorescence counterscreen assay for […] agonists: dose response cell-based high-throughput screening assay to identify agonists of the transient receptor potential channel ML3 (TRPML3). [Related pubchem assays: 1424, 1448 ]; format: functional
T4 sequence (Q8TDD5 whole entry): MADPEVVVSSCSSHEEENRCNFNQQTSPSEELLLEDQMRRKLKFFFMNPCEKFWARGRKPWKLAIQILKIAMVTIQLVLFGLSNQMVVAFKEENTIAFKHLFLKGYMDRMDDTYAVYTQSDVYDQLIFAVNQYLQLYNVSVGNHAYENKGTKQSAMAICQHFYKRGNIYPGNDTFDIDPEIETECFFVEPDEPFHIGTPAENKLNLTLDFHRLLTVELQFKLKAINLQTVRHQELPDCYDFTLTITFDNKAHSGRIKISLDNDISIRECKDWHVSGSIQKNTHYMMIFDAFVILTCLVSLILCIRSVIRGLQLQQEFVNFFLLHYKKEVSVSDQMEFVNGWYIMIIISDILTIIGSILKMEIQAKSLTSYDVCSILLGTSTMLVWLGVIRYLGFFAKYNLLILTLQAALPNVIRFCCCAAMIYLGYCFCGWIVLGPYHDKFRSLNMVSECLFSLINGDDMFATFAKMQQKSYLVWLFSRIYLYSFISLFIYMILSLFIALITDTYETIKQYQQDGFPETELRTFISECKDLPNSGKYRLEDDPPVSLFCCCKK

[7] = biological target: T5, Tyrosine-protein phosphatase non-receptor type 7 (Homo sapiens, UniProt P35236); assay: redox-dependent HePTP inhibition, mechanism study, biochemical, fluorescence (AID 2068); format: functional
T5 sequence (P35236 whole entry): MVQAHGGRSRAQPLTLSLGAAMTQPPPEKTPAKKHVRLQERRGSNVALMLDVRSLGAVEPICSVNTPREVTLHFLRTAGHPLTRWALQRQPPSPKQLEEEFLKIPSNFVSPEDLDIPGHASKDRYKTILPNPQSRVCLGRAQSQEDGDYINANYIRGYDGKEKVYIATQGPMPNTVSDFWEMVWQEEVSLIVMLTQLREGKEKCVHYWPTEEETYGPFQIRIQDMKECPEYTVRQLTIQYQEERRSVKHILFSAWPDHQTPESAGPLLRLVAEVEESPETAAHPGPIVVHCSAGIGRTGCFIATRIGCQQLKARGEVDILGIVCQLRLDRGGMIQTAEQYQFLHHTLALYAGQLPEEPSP

[8] = biological target: T6, Dual specificity protein phosphatase 3 (Homo sapiens, UniProt P51452); assay: SAR VHR1 Fluorescent Assay for In Vitro dose response studies Set 2. [Related pubchem assays (depositor defined):AID1654, AID1661, AID1878]; format: functional
T6 sequence (P51452 whole entry): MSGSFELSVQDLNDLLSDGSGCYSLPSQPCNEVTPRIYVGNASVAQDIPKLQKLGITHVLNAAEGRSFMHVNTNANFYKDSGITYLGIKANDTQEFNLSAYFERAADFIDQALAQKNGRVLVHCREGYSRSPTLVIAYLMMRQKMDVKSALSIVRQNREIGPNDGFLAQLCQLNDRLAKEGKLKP

[9] = biological target: T6, Dual specificity protein phosphatase 3; assay: SAR VHR1 Fluorescent Assay for In Vitro dose response studies. [Related pubchem assays (depositor defined):AID1654, AID1661, AID1878, AID1992, AID2004, AID2070, AID2085]; format: functional
[10] = biological target: T6, Dual specificity protein phosphatase 3; assay: SAR VHR1 absorbance Assay for In Vitro dose response studies. [Related pubchem assays (depositor defined):AID1654, AID1661, AID1878, AID1992, AID2004]
[11] = biological target: T7, Dual specificity protein phosphatase 6 (Rattus norvegicus, UniProt Q64346); format: functional;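 further: confirmatory in vitro dose-response testing of MKP-3 inhibition; recombinant His-tagged MKP-3 made in E. coli BL21 with OMFP substrate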
T7 sequence (Q64346 whole entry): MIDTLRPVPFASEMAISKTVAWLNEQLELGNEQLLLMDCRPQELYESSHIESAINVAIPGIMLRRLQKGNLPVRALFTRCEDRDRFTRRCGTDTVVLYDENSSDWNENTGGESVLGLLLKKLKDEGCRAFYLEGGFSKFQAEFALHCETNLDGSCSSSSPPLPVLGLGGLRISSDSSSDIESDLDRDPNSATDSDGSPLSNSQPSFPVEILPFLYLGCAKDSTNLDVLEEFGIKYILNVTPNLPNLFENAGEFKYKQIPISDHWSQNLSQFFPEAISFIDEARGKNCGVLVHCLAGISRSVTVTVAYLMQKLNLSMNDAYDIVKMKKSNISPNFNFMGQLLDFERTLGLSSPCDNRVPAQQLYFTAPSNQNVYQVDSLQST

[12] = biological target: T8, Intestinal-type alkaline phosphatase (Homo sapiens, UniProt P09923); assay: Dose Response confirmation of uHTS hits from a small molecule inhibitors of human intestinal alkaline phosphatase via a luminescent assay. [Related pubchem assays (depositor defined):AID2544, AID2574]; format: functional
T8 sequence (P09923 whole entry): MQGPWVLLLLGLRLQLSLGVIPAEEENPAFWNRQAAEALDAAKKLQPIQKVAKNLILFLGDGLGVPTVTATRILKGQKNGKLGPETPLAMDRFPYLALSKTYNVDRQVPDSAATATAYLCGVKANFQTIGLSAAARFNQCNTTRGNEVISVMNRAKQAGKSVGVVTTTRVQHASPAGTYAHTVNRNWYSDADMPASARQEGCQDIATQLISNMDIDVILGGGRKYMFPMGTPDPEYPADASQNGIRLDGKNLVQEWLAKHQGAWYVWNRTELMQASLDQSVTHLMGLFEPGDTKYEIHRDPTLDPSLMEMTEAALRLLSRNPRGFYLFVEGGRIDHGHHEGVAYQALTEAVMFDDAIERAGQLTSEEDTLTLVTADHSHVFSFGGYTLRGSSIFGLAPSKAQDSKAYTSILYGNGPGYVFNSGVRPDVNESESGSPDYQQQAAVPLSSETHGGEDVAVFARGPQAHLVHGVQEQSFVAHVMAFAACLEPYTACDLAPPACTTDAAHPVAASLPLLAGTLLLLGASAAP

[13] = biological target: T8, Intestinal-type alkaline phosphatase; assay: human intestinal alkaline phosphatase activators, dose response, biochemical, luminescence, uHTS hits (AID 463120); format: functional
[14] = biological target: T9, Cysteine protease ATG4B (Homo sapiens, UniProt Q9Y4P1); format: functional;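 further: Fluorescence-based dose-response confirmation assay measuring inhibition of ATG4B activity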
T9 sequence (Q9Y4P1 whole entry): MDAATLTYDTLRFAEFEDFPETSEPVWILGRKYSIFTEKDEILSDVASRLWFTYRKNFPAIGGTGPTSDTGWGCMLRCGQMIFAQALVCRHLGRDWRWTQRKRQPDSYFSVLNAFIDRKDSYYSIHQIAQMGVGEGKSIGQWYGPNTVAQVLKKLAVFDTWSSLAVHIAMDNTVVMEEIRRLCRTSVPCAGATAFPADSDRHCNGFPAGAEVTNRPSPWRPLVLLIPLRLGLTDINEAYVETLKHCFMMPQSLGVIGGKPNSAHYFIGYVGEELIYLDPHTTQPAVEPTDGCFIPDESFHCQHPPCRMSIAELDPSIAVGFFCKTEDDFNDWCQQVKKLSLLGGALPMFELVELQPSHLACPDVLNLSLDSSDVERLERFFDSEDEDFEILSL

[15] = biological target: Induced myeloid leukemia cell differentiation protein Mcl-1 (Homo sapiens, UniProt Q07820); format: functional
Sequence of Induced myeloid leukemia cell differentiation protein Mcl-1 (Q07820 whole entry): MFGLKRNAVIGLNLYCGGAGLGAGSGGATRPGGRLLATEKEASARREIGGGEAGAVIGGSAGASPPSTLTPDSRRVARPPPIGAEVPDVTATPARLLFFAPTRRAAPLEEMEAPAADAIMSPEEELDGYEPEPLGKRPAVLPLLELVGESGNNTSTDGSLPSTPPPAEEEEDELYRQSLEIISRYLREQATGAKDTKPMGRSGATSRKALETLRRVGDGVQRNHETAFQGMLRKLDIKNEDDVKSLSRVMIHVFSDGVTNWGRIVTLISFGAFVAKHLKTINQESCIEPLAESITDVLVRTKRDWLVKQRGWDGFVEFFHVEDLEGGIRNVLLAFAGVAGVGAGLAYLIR

[16] = test system: INS1; assay: beta cell apoptosis inhibitors, cytokine rescue, dose response, luminescence, retest (AID 449756); format: functional, cell-based; conditions: Rattus norvegicus;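 further: cell death triggered by IL-1 beta plus TNF-alpha plus IFN-gamma mixture; protective hits raise ATP signal compared with cytokine alone wells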
[17] = Luminescence Cell-Based Dose Retest to Confirm Inhibitors of Cancer Stem Cells. [Related pubchem assays (depositor defined):AID2717, AID2721]; format: functional; conditions: Homo sapiens
[18] = cytotoxicity toward NIH3T3 fibroblasts, dose response, counter-screen, cell-based, ATP luminescence, mouse fibroblasts (AID 2010); format: functional;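 further: cells exposed to compound for about 90 hours before reading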
[19] = inhibitors of intracellular T. cruzi replication, confirmation, NIH3T3 host cells, beta-gal luminescence (AID 2044); format: functional, cell-based;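 further: intracellular parasites grown in NIH/3T3 mouse fibroblasts as host cells; luminescent beta-galactosidase reporter signal from transgenic T. cruzi replicating inside host cells; inhibitors lower the luminescence signal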
[20] = biological target: Phospholipase A2 (Homo sapiens, UniProt P04054); format: functional;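 further: confirmatory dose-response counterscreen on phospholipase A2, testing hits that came from an ultra-high-throughput screen for ATG4B inhibitors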
Sequence of Phospholipase A2 (P04054 whole entry): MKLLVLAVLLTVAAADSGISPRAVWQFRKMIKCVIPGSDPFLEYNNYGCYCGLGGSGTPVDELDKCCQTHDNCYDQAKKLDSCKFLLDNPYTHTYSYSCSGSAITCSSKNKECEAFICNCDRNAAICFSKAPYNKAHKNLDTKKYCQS

[21] = biological target: DNA damage-inducible transcript 3 protein (Mus musculus, UniProt P35639); format: functional, Cricetulus griseus
Sequence of DNA damage-inducible transcript 3 protein (P35639 whole entry): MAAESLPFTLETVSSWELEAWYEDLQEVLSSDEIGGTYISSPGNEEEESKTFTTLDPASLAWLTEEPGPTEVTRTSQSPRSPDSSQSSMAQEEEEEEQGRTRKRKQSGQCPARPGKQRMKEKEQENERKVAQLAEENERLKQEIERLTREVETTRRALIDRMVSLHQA

For `O=S(=O)(Nc1cnc2ccccc2c1)c1ccc(F)cc1`, the IC50 [1] was > 100 µM (inactive) and the IC50 [2] was > 100 µM (not active).

In the case of `CC1(C)C(=O)Nc2ccccc2N1C(=O)COC(=O)c1cc(Cl)cc(Cl)c1`, the EC50 [3] is reported as 65.2 µM (inactive) and the EC50 [4] is reported as 49.1 µM (inactive).

For `CCOC(=O)C1CN(S(=O)(=O)c2ccc(C)cc2)CCN1S(=O)(=O)c1ccc(C)cc1` (stereo unspecified), the EC50 [5] was > 29.9 µM (inactive) and the EC50 [6] was > 29.9 µM (not active).

In the case of `CNS(=O)(=O)c1cccc(C(=O)NC2CCSc3ccccc32)c1` (stereo unspecified), the IC50 [7] is reported as > 100 µM (inactive), the IC50 [8] is reported as > 100 µM (inactive) and the IC50 [9] is reported as > 100 µM (inactive). The IC50 [10] was > 100 µM (inactive) and the IC50 [11] was > 100 µM (inactive).

In the case of `CN(Cc1ccccc1)C(=O)Nc1ccc(Cl)cc1`, the IC50 [12] is reported as > 100 µM (inactive) and the EC50 [13] is reported as > 100 µM (inactive).

With `Cc1ccccc1/C=N/Nc1ccnc2cc(Cl)ccc12` the IC50 [14] was 14.7 µM (active), the IC50 [15] was 5.13 µM (active) and the AC50 [16] was 5.39 µM (active). For the same molecule, the AC50 [17] was 3.62 µM (active), the EC50 [18] was > 60 µM (not active) and the EC50 [19] was 1.07 µM (active). The IC50 [20] was 11.4 µM (active) and the “Absolute IC50 (CHOP)” value [21] was 10 µM.

— ChEMBL document CHEMBL1201862, “PubChem BioAssay data set” (2004)
